Structures are written as SMILES. Counter-ions that a name gives are not always drawn.

Proton Pump (H^+/K^+-ATPase), sequence (P19156 2-1034 limits assumed): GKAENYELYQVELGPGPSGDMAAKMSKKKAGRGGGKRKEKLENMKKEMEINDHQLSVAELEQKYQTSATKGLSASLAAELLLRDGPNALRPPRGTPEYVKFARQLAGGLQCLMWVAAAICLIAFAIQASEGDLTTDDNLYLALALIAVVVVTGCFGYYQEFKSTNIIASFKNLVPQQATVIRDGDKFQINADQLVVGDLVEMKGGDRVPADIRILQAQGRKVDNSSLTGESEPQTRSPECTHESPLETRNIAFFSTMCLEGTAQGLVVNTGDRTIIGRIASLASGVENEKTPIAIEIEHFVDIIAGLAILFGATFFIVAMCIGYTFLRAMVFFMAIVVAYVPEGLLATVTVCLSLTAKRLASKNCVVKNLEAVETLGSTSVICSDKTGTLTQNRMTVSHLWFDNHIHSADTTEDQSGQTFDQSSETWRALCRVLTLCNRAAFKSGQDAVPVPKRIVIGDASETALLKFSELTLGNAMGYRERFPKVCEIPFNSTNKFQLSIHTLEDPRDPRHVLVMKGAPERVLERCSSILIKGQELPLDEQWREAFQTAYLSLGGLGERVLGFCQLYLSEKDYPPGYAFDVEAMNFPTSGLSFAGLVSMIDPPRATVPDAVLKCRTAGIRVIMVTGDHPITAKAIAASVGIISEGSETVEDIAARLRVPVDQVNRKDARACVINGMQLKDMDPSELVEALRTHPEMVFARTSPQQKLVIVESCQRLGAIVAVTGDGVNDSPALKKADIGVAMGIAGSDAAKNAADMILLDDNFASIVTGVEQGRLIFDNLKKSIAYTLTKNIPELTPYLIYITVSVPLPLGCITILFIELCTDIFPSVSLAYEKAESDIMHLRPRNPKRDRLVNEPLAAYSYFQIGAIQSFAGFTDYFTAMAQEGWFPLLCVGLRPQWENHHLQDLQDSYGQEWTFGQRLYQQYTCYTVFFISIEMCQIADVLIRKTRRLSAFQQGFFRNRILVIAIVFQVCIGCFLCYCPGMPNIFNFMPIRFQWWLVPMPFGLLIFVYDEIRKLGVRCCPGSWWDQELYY
Proton Pump (H^+/K^+-ATPase), sequence (P18434 whole entry partner): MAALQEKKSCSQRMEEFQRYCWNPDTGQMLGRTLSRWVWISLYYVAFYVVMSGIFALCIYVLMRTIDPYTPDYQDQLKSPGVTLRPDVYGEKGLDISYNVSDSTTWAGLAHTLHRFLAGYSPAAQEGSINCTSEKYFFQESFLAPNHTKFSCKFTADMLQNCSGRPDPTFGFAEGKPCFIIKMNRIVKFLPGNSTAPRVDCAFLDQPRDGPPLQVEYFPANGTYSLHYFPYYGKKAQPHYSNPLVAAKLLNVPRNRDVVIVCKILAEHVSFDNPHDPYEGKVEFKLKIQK

The assay addresses Proton Pump (H^+/K^+-ATPase) (Sus scrofa, UniProt P19156). The experiment in a line: Inhibitory effects on proton pump (H^+/K^+-ATPase) activity. The class given is biochemical. As to conditions: hog gastric vesicles; K^+ stimulated H^+/K^+-ATPase activity; 30 minutes at 37° C.
As a reminder, the IC50 is the concentration needed to halve the response being measured. Read a low IC50 as higher potency. `Cc1c(C)n(Cc2ccc(F)cc2)c2c(N(C)Cc3ccc(F)cc3)nccc12` [Example 155, 1-(4-fluorobenzyl)-7-[N-(4-fluorobenzyl)-N-methyl]amino-2,3-dimethyl-1H-pyrrolo[2,3-c]pyridine hydrochloride] yielded a concentration for half-maximal inhibition (IC50) of 400 nM. As to `Cc1c(C)n(Cc2ccccc2)c2c(CCc3ccccc3)nccc12` [Example 442, 1-benzyl-2,3-dimethyl-7-phenethyl-1H-pyrrolo[2,3-c]pyridine hydrochloride], the concentration for half-maximal inhibition (IC50) came out at 100 nM. With `C=Cc1ccc(-c2nccc3c(C)c(C)n(Cc4ccc5ccccc5c4)c23)cc1` [Example 257, 2,3-dimethyl-1-(naphthalen-2-ylmethyl)-7-(4-vinylphenyl)-1H-pyrrolo[2,3-c]pyridine hydrochloride] the figure was 270 nM; with `Cc1[nH]c2c(N3CCc4ccccc4C3)nc(C(=O)N3CCCCC3)cc2c1C` [Example 791, [7-(3,4-dihydro-1H-isoquinolin-2-yl)-2,3-dimethyl-1H-pyrrolo[2,3-c]pyridin-5-yl]-(piperidin-1-yl)-methanone hydrochloride], 122 nM.

In the case of `C=CCn1c(C)c(C)c2ccnc(-c3ccc(OC)cc3)c21` [Example 360, 1-allyl-7-(4-methoxyphenyl)-2,3-dimethyl-1H-pyrrolo[2,3-c]pyridine hydrochloride], the IC50 amounted to 278 nM.

Consider `C=CCn1c(C)c(C)c2cc(C(=O)N3CCCCC3)nc(N3CCc4ccccc4C3)c21` [Example 786, [1-allyl-7-(3,4-dihydro-1H-isoquinolin-2-yl)-2,3-dimethyl-1H-pyrrolo[2,3-c]pyridin-5-yl]-(piperidin-1-yl)-methanone hydrochloride], for which half-maximal inhibition (IC50) was put at 15 nM. This IC50 lies about 19-fold lower than the previous one. With `COCn1c(C)c(C)c2cc(C(=O)N3CCCCC3)nc(N3CCc4ccccc4C3)c21` [Example 800, [7-(3,4-dihydro-1H-isoquinolin-2-yl)-1-methoxymethyl-2,3-dimethyl-1H-pyrrolo[2,3-c]pyridin-5-yl]-(piperidin-1-yl)-methanone hydrochloride] the figure was 91 nM; with `Cc1c(C)n(Cc2ccccc2)c2c(N3CCc4ccccc4C3)nc(C(=O)N3CCCCC3)cc12` [Example 788, [1-benzyl-7-(3,4-dihydro-1H-isoquinolin-2-yl)-2,3-dimethyl-1H-pyrrolo[2,3-c]pyridin-5-yl]-(piperidin-1-yl)-methanone hydrochloride], 52 nM.

With `Cc1c(C)n(Cc2ccc(Cl)cc2)c2c(CCc3ccccc3)nccc12` [Example 446, 1-(4-chlorobenzyl)-2,3-dimethyl-7-phenethyl-1H-pyrrolo[2,3-c]pyridine hydrochloride], the IC50 was determined as 390 nM. This IC50 lies about 7.5-fold higher than the previous one. Next, `Cc1ccc(-c2nccc3c(C)c(C)n(CC4CCC4)c23)cc1` [Example 289, 1-cyclobutylmethyl-2,3-dimethyl-7-(p-tolyl)-1H-pyrrolo[2,3-c]pyridine hydrochloride]: 1340 nM; `Cc1c(C)n(Cc2cccc(F)c2)c2c(N3CCc4ccccc4C3)nc(CC#N)cc12` [Example 884, [7-(3,4-dihydro-1H-isoquinolin-2-yl)-1-(3-fluorobenzyl)-2,3-dimethyl-1H-pyrrolo[2,3-c]pyridin-5-yl]-acetonitrile hydrochloride]: 216 nM.

Compound `Cc1c(C)n(Cc2cccc(F)c2)c2c(N3CCc4ccccc4C3)nc(CN3CCOCC3)cc12` [Example 872, 2-[1-(3-fluorobenzyl)-2,3-dimethyl-5-(morpholin-4-ylmethyl)-1H-pyrrolo[2,3-c]pyridin-7-yl]-1,2,3,4-tetrahydroisoquinoline hydrochloride] returned a 50% inhibitory concentration (IC50) of 43 nM. Next, `Cc1c(C)n(Cc2ccc(F)cc2)c2c(N3CCc4ccccc4C3)nc(C(=O)N3CCCCC3)cc12` [Example 797, [7-(3,4-dihydro-1H-isoquinolin-2-yl)-1-(4-fluorobenzyl)-2,3-dimethyl-1H-pyrrolo[2,3-c]pyridin-5-yl]-(piperidin-1-yl)-methanone hydrochloride]: 287 nM; `Cc1c(C)n(Cc2cccnc2)c2c(N3CCc4ccccc4C3)nccc12` [Example 516, 1-(pyridin-3-ylmethyl)-7-(1,2,3,4-tetrahydroisoquinolin-2-yl)-2,3-dimethyl-1H-pyrrolo[2,3-c]pyridine hydrochloride]: 124 nM; `CCn1c(C)c(C)c2cc(C(=O)N3CCC(CO)CC3)nc(N3CCc4ccccc4C3)c21` [Example 805, [7-(3,4-dihydro-1H-isoquinolin-2-yl)-1-ethyl-2,3-dimethyl-1H-pyrrolo[2,3-c]pyridin-5-yl]-(4-hydroxymethylpiperidin-1-yl)-methanone hydrochloride]: 31 nM. With `Cc1c(C)n(Cc2ccccc2)c2c(NCc3ccc(F)cc3)nc(C(=O)N3CCCCC3)cc12` [Example 908, [1-benzyl-7-(4-fluorobenzylamino)-2,3-dimethyl-1H-pyrrolo[2,3-c]pyridin-5-yl]-(piperidin-1-yl)-methanone hydrochloride] the figure was 384 nM; with `Cc1c(C)n(Cc2ccccc2)c2c(COc3ccc(Cl)cc3)nccc12` [Example 43, 1-benzyl-7-(4-chlorophenoxymethyl)-2,3-dimethyl-1H-pyrrolo[2,3-c]pyridine hydrochloride], 130 nM; with `COCCn1c(C)c(C)c2ccnc(N3CCc4cc(F)ccc4C3C)c21` (stereo not drawn) [Example 564, 6-fluoro-2-[1-(2-methoxyethyl)-2,3-dimethyl-1H-pyrrolo[2,3-c]pyridin-7-yl]-1-methyl-1,2,3,4-tetrahydroisoquinoline hydrochloride], 82 nM.

For the compound `CC(C)=CCn1c(C)c(C)c2ccnc(N3CCc4ccc(F)cc4C3C)c21` (stereo not drawn) [Example 545, 2-[2,3-dimethyl-1-(3-methylbut-2-enyl)-1H-pyrrolo[2,3-c]pyridin-7-yl]-7-fluoro-1-methyl-1,2,3,4-tetrahydroisoquinoline hydrochloride], the half-inhibitory concentration (IC50) amounted to 190 nM. Next, `C=CCn1c(C)c(C)c2ccnc(N3CCc4ccc(F)cc4C3C)c21` (stereo not drawn) [Example 544, 2-(1-allyl-2,3-dimethyl-1H-pyrrolo[2,3-c]pyridin-7-yl)-7-fluoro-1-methyl-1,2,3,4-tetrahydroisoquinoline hydrochloride]: 22 nM. With `Cc1c(C)n(Cc2ccc(F)cc2)c2c(CCc3ccccc3)nccc12` [Example 455, 1-(4-fluorobenzyl)-2,3-dimethyl-7-phenethyl-1H-pyrrolo[2,3-c]pyridine hydrochloride] the figure was 400 nM; with `Cc1ccc(Cn2c(C)c(C)c3ccnc(COc4ccc(C)cc4)c32)cc1` [Example 17, 2,3-dimethyl-1-(4-methylbenzyl)-7-(p-tolyloxymethyl)-1H-pyrrolo[2,3-c]pyridine hydrochloride], 430 nM.

On to `CCCn1c(C)c(C)c2cc(C(=O)N3CCN(C)CC3)nc(N3CCc4ccccc4C3)c21` [Example 825, [7-(3,4-dihydro-1H-isoquinolin-2-yl)-2,3-dimethyl-1-propyl-1H-pyrrolo[2,3-c]pyridin-5-yl]-(4-methylpiperazin-1-yl)-methanone hydrochloride], for which the midpoint of inhibition, the IC50, lay at 24 nM. Next, `Cc1c(C)n(Cc2ccccc2)c2c(N3CCc4ccc(F)cc4C3C)nccc12` (stereo not drawn) [Example 547, 2-(1-benzyl-2,3-dimethyl-1H-pyrrolo[2,3-c]pyridin-7-yl)-7-fluoro-1-methyl-1,2,3,4-tetrahydroisoquinoline hydrochloride]: 130 nM. Take `Cc1c(C)n(Cc2cccc(Cl)c2)c2c(N3CCc4ccccc4C3)nc(N)cc12` [Example 845, 1-(3-chlorobenzyl)-7-(3,4-dihydro-1H-isoquinolin-2-yl)-2,3-dimethyl-1H-pyrrolo[2,3-c]pyridin-5-amine hydrochloride]: inhibition was half-maximal at 287 nM (IC50). With `COC(=O)c1cc2c(C)c(C)n(Cc3ccccc3)c2c(N2CCc3ccccc3C2)n1` [Example 743, 1-benzyl-7-(3,4-dihydro-1H-isoquinolin-2-yl)-2,3-dimethyl-1H-pyrrolo[2,3-c]pyridin-5-carboxylic acid methyl ester] the figure was 231 nM; with `Cc1c(C)n(Cc2ccccn2)c2c(N3CCc4ccccc4C3)nccc12` [Example 517, 1-(pyridin-2-ylmethyl)-7-(1,2,3,4-tetrahydroisoquinolin-2-yl)-2,3-dimethyl-1H-pyrrolo[2,3-c]pyridine hydrochloride], 20 nM.

With `COc1cccc(Cn2c(C)c(C)c3ccnc(-c4ccc(SC)cc4)c32)c1` [Example 266, 1-(3-methoxybenzyl)-2,3-dimethyl-7-(4-methylsulfanylphenyl)-1H-pyrrolo[2,3-c]pyridine hydrochloride], the IC50 was found to be 140 nM. Against the preceding compound, the IC50 is about 7-fold higher. With `Cc1c(C)n(Cc2ccc(F)cc2)c2c(N3CCc4ccccc4C3)nc(C(=O)N3CCN(C)CC3)cc12` [Example 831, [7-(3,4-dihydro-1H-isoquinolin-2-yl)-1-(4-fluorobenzyl)-2,3-dimethyl-1H-pyrrolo[2,3-c]pyridin-5-yl]-(4-methylpiperazin-1-yl)-methanone hydrochloride] the figure was 39 nM. Compound `CCC1c2ccccc2CCN1c1nccc2c(C)c(C)n(CCOC)c12` (stereo not drawn) [Example 585, 1-ethyl-2-[1-(2-methoxyethyl)-2,3-dimethyl-1H-pyrrolo[2,3-c]pyridin-7-yl]-1,2,3,4-tetrahydroisoquinoline hydrochloride] returned a concentration for half-maximal inhibition (IC50) of 370 nM. This IC50 lies about 9.5-fold higher than the previous one. In turn, `COc1ccc(-c2nccc3c(C)c(C)n(Cc4ccccc4)c23)cc1` [Example 350, 1-benzyl-7-(4-methoxyphenyl)-2,3-dimethyl-1H-pyrrolo[2,3-c]pyridine hydrochloride] returned an IC50 of 210 nM.

`C=CCn1c(C)c(C)c2ccnc(N3CCc4ccccc4C3)c21` [Example 487, 1-allyl-7-(1,2,3,4-tetrahydroisoquinolin-2-yl)-2,3-dimethyl-1H-pyrrolo[2,3-c]pyridine methanesulfonate] had an IC50 of 4 nM.

Take `COc1cccc(Cn2c(C)c(C)c3cc(CN4CCN(C)CC4)nc(N4CCc5ccccc5C4)c32)c1` [Example 876, 2-[1-(3-methoxybenzyl)-2,3-dimethyl-5-(4-methylpiperazin-1-ylmethyl)-1H-pyrrolo[2,3-c]pyridin-7-yl]-1,2,3,4-tetrahydroisoquinoline hydrochloride]: it took 99 nM to reach half-maximal inhibition (IC50).
